From US10344017B2, “Pyrrolcarboxamide derivatives for the inhibition of ERK5” (CANCER RESEARCH TECHNOLOGY LIMITED, priority 2014, dated 2019)
Where two headings read alike, the source gives them in different places.

Legend:
[1] = molecular target: T1, ERK5 (Homo sapiens, UniProt Q13164); assay: ERK5 IMAP assay (fluorescence polarisation); format: biochemical
T1 construct: made in house

[2] = tested on: ERK5 (HA-ERK5 wt activated by EGFP-MEK5D, MEF2D-Gal4/Gal4-Luc reporter) in HEK293 cells; assay: Dual-luciferase reporter assay (ERK5 reporter), reverse-transfected HEK293 cells; conditions: Homo sapiens, HEK293, read-out: ERK 5 Reporter Assay
Protocol: Dual-Luciferase Reporter Assay
Trypsinizing of Adherent Cell Colonies
Cells were regularly passaged in order to maintain optimum colony sizes on plates. In order to do this, and to harvest cells for use in the dual-luciferase reporter assay, adherent cells were lifted from tissue culture dishes. Cell media was removed via aspiration, and the cell monolayer was washed with phosphate buffered saline (PBS) solution (10 mL), which was then aspirated.
Reverse Transfection of HEK293 Cells
Preparation of EGFP Control (C3) Working Solution (for 1×96 Well Plate)
Preparation of HEK293 Cells for Reverse Transfection
Trypsinized HEK293 cells were re-suspended in 19 mL of fresh cell media and counted using haemocytometry. Cells were then diluted with fresh cell media to achieve a final cell concentration of 2×10^5 cells/mL. 1237.5 μL and 7425 μL of this cell media was added to the C3 and 5D working solutions respectively. 100 μL of the transfected cells were then aliquoted into the appropriate wells in a 96-well opaque sided tissue culture plate, and incubated at 37° C. for 6 h.
Addition of Compounds to HEK293 Cells
4 compounds was assayed per 96-well plate. For each compound, 1 mL of growth media was added to eight 1.5 mL Eppendorf® tubes. 6 μL of DMSO was added to two tubes for C3 and blank 5D wells, and 6 μL of the relevant compound stock solution was added to the 6 remaining tubes. […] Solutions of drug in media were thoroughly mixed, and 100 μL of the relevant compound was transferred (in triplicate) to the 96-well plate containing transfected HEK293 cells using an electronic multichannel pipette with variable tip spacing. Sealed plates were incubated at 37° C. for 24 h. Final compound concentrations were as follows; 30 μM, 10 μM, 3 μM, 1 μM and 0.3 μM.
15 mL of 1× passive lysis buffer (PLB) was prepared using 5×PLB (Dual-Luciferase Reporter Assay System, Promega® E1960), diluting with H2O. Assay plates prepared were removed from the incubator and the growth media removed by aspiration.

[3] = average (e.g. geometric mean) where more than one data point, read-out: ERK5 IC50

T1 sequence (Q13164 whole entry): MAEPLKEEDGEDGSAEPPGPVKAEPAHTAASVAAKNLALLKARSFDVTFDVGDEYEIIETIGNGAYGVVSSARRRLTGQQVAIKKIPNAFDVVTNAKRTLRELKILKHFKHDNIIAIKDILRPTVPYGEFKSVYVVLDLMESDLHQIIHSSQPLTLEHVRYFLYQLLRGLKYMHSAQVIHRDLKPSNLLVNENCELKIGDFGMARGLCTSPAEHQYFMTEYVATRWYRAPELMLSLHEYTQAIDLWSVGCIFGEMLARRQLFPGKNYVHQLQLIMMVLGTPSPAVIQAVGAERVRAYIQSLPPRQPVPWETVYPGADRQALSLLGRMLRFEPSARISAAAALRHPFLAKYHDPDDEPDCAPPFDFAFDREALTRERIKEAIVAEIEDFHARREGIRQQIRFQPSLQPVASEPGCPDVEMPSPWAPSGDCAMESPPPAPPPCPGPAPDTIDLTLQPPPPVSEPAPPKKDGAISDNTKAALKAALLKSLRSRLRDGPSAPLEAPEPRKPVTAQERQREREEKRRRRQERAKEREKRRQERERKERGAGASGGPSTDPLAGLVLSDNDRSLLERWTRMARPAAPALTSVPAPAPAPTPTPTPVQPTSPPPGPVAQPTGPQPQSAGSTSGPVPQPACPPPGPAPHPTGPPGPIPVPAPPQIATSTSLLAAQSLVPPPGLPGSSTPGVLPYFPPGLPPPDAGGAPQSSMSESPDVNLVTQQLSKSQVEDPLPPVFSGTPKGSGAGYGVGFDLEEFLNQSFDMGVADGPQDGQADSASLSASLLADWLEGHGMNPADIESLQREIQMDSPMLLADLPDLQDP

Structure (SMILES)	IC50 [1, 3] [nM]	IC50 [2] [nM]	IC50 [1] [nM]
O=C(NC1CCNCC1)c1cc(C(=O)c2c(F)cccc2Cl)c[nH]1 [Example 3, 4-(2-Chloro-6-fluorobenzoyl)-N-(piperidin-4-yl)-1H-pyrrole-2-carboxamide]	487	3500	
O=C(NC1CCNCC1)c1cc(C(=O)c2c(Cl)ccc(Cl)c2F)c[nH]1 [Example 4, 4-(3,6-Dichloro-2-fluorobenzoyl)-N-(piperidin-4-yl)-1H-pyrrole-2-carboxamide]		2340	
CC(=O)N1CCC(NC(=O)c2cc(C(=O)c3c(Cl)ccc(Cl)c3F)c[nH]2)CC1 [Example 7, N-(1-Acetylpiperidin-4-yl)-4-(3,6-dichloro-2-fluorobenzoyl)-1H-pyrrole-2-carboxamide]	87.8	968	
CS(=O)(=O)N1CCC(NC(=O)c2cc(C(=O)c3c(Cl)ccc(Cl)c3F)c[nH]2)CC1 [Example 9, 4-(3,6-Dichloro-2-fluorobenzoyl)-N-(1-(methylsulfonyl)piperidin-4-yl)-1H-pyrrole-2-carboxamide]	144	826	
CN1CCN(c2ccc(NC(=O)c3cc(C(=O)c4c(F)cccc4Cl)c[nH]3)cn2)CC1 [Example 31, 4-(2-Chloro-6-fluorobenzoyl)-N-(6-(4-methylpiperazin-1-yl)pyridin-3-yl)-1H-pyrrole-2-carboxamide]	91.5	1180	
O=C(Nc1cnn(C2CCNCC2)c1)c1cc(C(=O)c2c(F)cccc2Cl)c[nH]1 [Example 52, 4-(2-Chloro-6-fluorobenzoyl)-N-(1-(piperidin-4-yl)-1H-pyrazol-4-yl)-1H-pyrrole-2-carboxamide]	123	8810	
O=C(Nc1cccnc1)c1cc(C(=O)c2c(F)cccc2F)c[nH]1 [Example 122, 4-(2,6-Difluorobenzoyl)-N-(pyridin-3-yl)-1H-pyrrole-2-carboxamide]		26000	1120
CC(C)(C)OC(=O)N1CCC(NC(=O)c2cc(C(=O)c3c(F)cccc3F)c[nH]2)CC1 [Example 123, tert-Butyl 4-(4-(2,6-difluorobenzoyl)-1H-pyrrole-2-carboxamido)piperidine-1-carboxylate]	2860	25000	
O=C(Nc1cnn(C2COC2)c1)c1cc(C(=O)c2c(Cl)ccc(Cl)c2F)c[nH]1 [Example 239, 4-(3,6-Dichloro-2-fluorobenzoyl)-N-(1-(oxetan-3-yl)-1H-pyrazol-4-yl)-1H-pyrrole-2-carboxamide]	86.6		
O=C(Nc1cnn(C2CCOC2)c1)c1cc(C(=O)c2c(Cl)ccc(Cl)c2F)c[nH]1 (stereo not shown) [Example 240, 4-(3,6-Dichloro-2-fluorobenzoyl)-N-(1-(tetrahydrofuran-3-yl)-1H-pyrazol-4-yl)-1H-pyrrole-2-carboxamide]	127		
O=C(Nc1cnc(CN2CCOCC2)nc1)c1cc(C(=O)c2c(Cl)ccc(Cl)c2F)c[nH]1 [Example 242, 4-(3,6-Dichloro-2-fluorobenzoyl)-N-(2-(morpholinomethyl)pyrimidin-5-yl)-1H-pyrrole-2-carboxamide]	53		
COc1ccc(Cl)c(C(=O)c2c[nH]c(C(=O)Nc3cnc(CN4CCOCC4)nc3)c2)c1F [Example 243, 4-(6-Chloro-2-fluoro-3-methoxybenzoyl)-N-(2-(morpholinomethyl)pyrimidin-5-yl)-1H-pyrrole-2-carboxomide]	129		
COc1ccc(Cl)c(C(=O)c2c[nH]c(C(=O)Nc3cnc(CC4CCN(C)CC4)nc3)c2)c1F [Example 247, 4-(6-Chloro-2-fluoro-3-methoxybenzoyl)-N-(2-((1-methylpiperidin-4-yl)methyl)pyrimidin-5-yl)-1H-pyrrole-2-carboxamide]	18.1		
COc1ccc(Cl)c(C(=O)c2c[nH]c(C(=O)Nc3ccc(CN4CCNCC4)nc3)c2)c1F [Example 251, 4-(6-Chloro-2-fluoro-3-methoxybenzoyl)-N-(6-(piperazin-1-ylmethyl)pyridin-3-yl)-1H-pyrrole-2-carboxamtde]	7.9		
O=C(Nc1cccnc1)c1cc(C(=O)c2c(Cl)ccc(O)c2F)c[nH]1 [Example 254, 4-(6-Chloro-2-fluoro-3-hydroxybenzoyl)-N-(pyridin-3-yl)-1H-pyrrole-2-carboxamide]	1190		
Cn1cc(NC(=O)c2cc(C(=O)c3c(Cl)ccc(O)c3F)c[nH]2)cn1 [Example 255, 4-(6-Chloro-2-fluoro-3-hydroxybenzoyl)-N-(1-methyl-1H-pyrazol-4-yl)-1H-pyrrole-2-carboxamide]	736		
CCOc1ccc(Cl)c(C(=O)c2c[nH]c(C(=O)Nc3cccnc3)c2)c1F [Example 256, 4-(6-Chloro-3-ethoxy-2-fluorobenzoyl)-N-(pyridin-3-yl)-1H-pyrrole-2-carboxamide]	116		
CCOc1ccc(Cl)c(C(=O)c2c[nH]c(C(=O)Nc3cnn(C)c3)c2)c1F [Example 257, 4-(6-Chloro-3-ethoxy-2-fluorobenzoyl)-N-(1-methyl-1H-pyrazol-yl)-1H-pyrrole-2-carboxamide]	203		

Structure (SMILES)	IC50 [1, 3] [nM]	IC50 [2] [nM]	IC50 [1] [nM]
COCCOc1ccc(Cl)c(C(=O)c2c[nH]c(C(=O)Nc3cccnc3)c2)c1F [Example 258, 4-(6-Chloro-2-fluoro-3-(2-methoxyelhoxy)benzoyl)-N-(pyridin-3-yl)-1H-pyrrole-2-carboxamide]	653		
O=C(Nc1cccnc1)c1cc(C(=O)c2c(Cl)ccc(OC3CCOC3)c2F)c[nH]1 (stereo not shown) [Example 259, 4-(6-Chloro-2-fluoro-3-((tetrahydrofuran-3-yl)oxy)benzoyl)-N-(pyridin-3-yl)-1H-pyrrole-2-carboxamide]	483		
COCCOc1ccc(Cl)c(C(=O)c2c[nH]c(C(=O)Nc3cnn(C)c3)c2)c1F [Example 260, 4-(6-Chloro-2-fluoro-3-(2-methoxyethoxy)benzoyl)-N-(1-methyl-1H-pyrazol-4-yl)-1H-pyrrole-2-carboxamide]	1190		
Cn1cc(NC(=O)c2cc(C(=O)c3c(Cl)ccc(OC4CCOC4)c3F)c[nH]2)cn1 (stereo not shown) [Example 261, 4-(6-Chloro-2-fluoro-3-((tetrahydrofuran-3-yl)oxy)benzoyl)-N-(1-methyl-1H-pyrazol-4-yl)-1H-pyrrole-2-carboxamide]	553		
CS(=O)(=O)CCNc1ccc(NC(=O)c2cc(C(=O)c3c(Cl)ccc(Cl)c3F)c[nH]2)cn1 [Example 263, 4-(3,6-Dichloro-2-fluorobenzoyl)-N-(6-((2-(methylsulfonyl)ethyl)amino)pyridin-3-yl)-1H-pyrrole-2-carboxamide]	211		
O=Cc1ccc(F)c(C(=O)c2c[nH]c(C(=O)Nc3cccnc3)c2)c1F [Example 265, 4-(2,6-difluoro-3-formylbenzoyl)-N-(pyridin-3-yl)-1H-pyrrole-2-carboxamide]	7450		
O=C(Nc1cccnc1)c1cc(C(=O)c2c(F)ccc(C(=O)O)c2F)c[nH]1 [Example 266, 2,4-difluoro-3-(5-(pyridin-3-ylcarbamoyl)-1H-pyrrole-3-carbonyl) benzoic Acid]	1930		
O=C(Nc1cccnc1)c1cc(C(=O)c2c(Cl)ccc(OC3CCOCC3)c2F)c[nH]1 [Example 267, 4-(6-Chloro-2-fluoro-3-((tetrahydro-2H-pyran-4-yl)oxy)benzoyl)-N-(pyridin-3-yl)-1H-pyrrole-2-carboxamide]	1740		
Cn1cc(NC(=O)c2cc(C(=O)c3c(Cl)ccc(OC4CCOCC4)c3F)c[nH]2)cn1 [Example 268, 4-(6-Chloro-2-fluoro-3-((tetrahydro-2H-pyran-4-yl)oxy)benzoyl)-N-(1-methyl-1H-pyrazol-4-yl)-1H-pyrrole-2-carboxamide]	2800		
Cn1cc(NC(=O)c2cc(C(=O)c3c(F)cccc3Cl)c[nH]2)cn1 [Example 269, 4-(2-Chloro-6-fluorobenzoyl)-N-(1-methyl-1H-pyrazol-4-yl)-1H-pyrrole-2-carboxamide]	777		
O=C(Nc1cccnc1)c1cc(C(=O)c2c(Cl)ccc(OC(CO)CCl)c2F)c[nH]1 (stereo not shown) [Example 270, 4-(6-Chloro-3-((1-chloro-3-hydroxypropan-2-yl)oxy)-2-fluorobenzoyl)-N-(pyridin-3-yl)-1H-pyrrole-2-carboxamide]	458		
O=C(Nc1cccnc1)c1cc(C(=O)c2c(Cl)ccc(OC(CCl)CCl)c2F)c[nH]1 [Example 271, 4-(6-Chloro-3-((1,3-dichloropropan-2-yl)oxy)-2-fluorobenzoyl)-N-(pyridin-3-yl)-1H-pyrrole-2-carboxamide]	1260		
O=C(Nc1cccnc1)c1cc(C(=O)c2c(Cl)ccc(OC3COC3)c2F)c[nH]1 [Example 272, 4-(6-Chloro-2-fluoro-3-(oxetan-3-yloxy)beruoyl)-N-(pyridin-3-yl)-1H-pyrrole-2-carboxamide]	73		
Cn1cc(NC(=O)c2cc(C(=O)c3c(Cl)ccc(OC4COC4)c3F)c[nH]2)cn1 [Example 273, 4-(6-Chloro-2-fluoro-3-(oxetan-3-yloxy)benzoyl)-N-(1-methyl-1H-pyrazol-4-yl)-1H-pyrrole-2-carboxamide]	58.3		
CNCc1ccc(F)c(C(=O)c2c[nH]c(C(=O)Nc3cccnc3)c2)c1F [Example 274, 4-(2,6-difluoro-3-((methylamino)methyl)benzoyl)-N-(pyridin-3-yl)-1H-pyrrole-2-carboxamide]	3640		
O=C(Nc1ccc(OC2COC2)nc1)c1cc(C(=O)c2c(Cl)ccc(Cl)c2F)c[nH]1 [Example 279, 4-(3,6-Dichloro-2-fluorobenzoyl)-N-(6-(oxetan-3-yloxy)pyridin-3-yl)-1H-pyrrole-2-carboxamide]	874		
O=C(Nc1ccc(OCCO)nc1)c1cc(C(=O)c2c(Cl)ccc(Cl)c2F)c[nH]1 [Example 281, 4-(3,6-Dichloro-2-fluorobenzoyl)-N-(6-(2-hydroxyethoxy)pyridin-3-yl)-1H-pyrrole-2-carboxamide]	390		
COCCN(CCOC)Cc1ccc(NC(=O)c2cc(C(=O)c3c(Cl)ccc(Cl)c3F)c[nH]2)cn1 [Example 283, N-(6-((bis(2-methoxyethyl)amino)methyl)pyridin-3-yl)-4-(3,6-dichloro-2-fluorobenzoyl)-1H-pyrrole-2-carboxamide]	117		
